Laboratory results published in patent publication US8778919B2, “Cyclic anilino—pyridinotriazines” (Janssen Pharmaceutica NV, priority 2005, dated 2014).

Columns and labels:
[1] = biological target: CDK6/cyclinD3 human (Homo sapiens, UniProt Q00534); experiment: Kinase profiling C3.7 CDK6/cyclinD3 human; format: biochemical; details: CDK6/cyclinD3, test concentration of 10^−6 M
Method: (§1) The in vitro inhibition of a panel of kinases was assessed using either the glass-fiber filter technology as described by Davies, S. P. et al., Biochem J. (2000), 351; p. 95-105. In the glass-fiber filter technology the activity of the kinase of interest is measured using an appropriate substrate that is incubated with the aforementioned kinase protein in the presence of (^33P) radiolabeled ATP. (^33P) Phosporylation of the substrate is subsequently measured as radioactivity bound on a glassfiber-filter.
(§2) All kinases are pre-diluted to a 10× working concentration prior to addition into the assay. The composition of the dilution buffer for each kinase is detailed below.
(§3) All substrates are dissolved and diluted to working stocks in de-ionised water, apart from histone H1 that is stored in 10× working stock in 20 mM MOPS pH 7.4.
(§4) In a final reaction volume of 25 μl, CDK6/cyclinD3 human (5-10 mU) is incubated with 8 mM MOPS pH 7.0, 0.2 mM EDTA, 0.1 mg/ml histone H1, 10 mM MgAcetate and [γ-^33P-ATP] (specific activity approx. 500 cpm/pmol, concentration as required). The reaction is initiated by the addition of the MgATP mix. After incubation for 40 minutes at room temperature, the reaction is stopped by the addition of 5 μl of a 3% phosphoric acid solution. 10 μl of the reaction is then spotted onto a P30 filtermat and washed three times for 5 minutes in 75 mM phosphoric acid and once in methanol prior to drying and scintillation counting.

[2] = biological target: T1, Aurora-A (h) (Homo sapiens, UniProt O14965); experiment: Kinase profiling C3.1 Aurora-A human; format: biochemical; details: test concentration of 10^−6 M
T1 sequence (O14965 1-403): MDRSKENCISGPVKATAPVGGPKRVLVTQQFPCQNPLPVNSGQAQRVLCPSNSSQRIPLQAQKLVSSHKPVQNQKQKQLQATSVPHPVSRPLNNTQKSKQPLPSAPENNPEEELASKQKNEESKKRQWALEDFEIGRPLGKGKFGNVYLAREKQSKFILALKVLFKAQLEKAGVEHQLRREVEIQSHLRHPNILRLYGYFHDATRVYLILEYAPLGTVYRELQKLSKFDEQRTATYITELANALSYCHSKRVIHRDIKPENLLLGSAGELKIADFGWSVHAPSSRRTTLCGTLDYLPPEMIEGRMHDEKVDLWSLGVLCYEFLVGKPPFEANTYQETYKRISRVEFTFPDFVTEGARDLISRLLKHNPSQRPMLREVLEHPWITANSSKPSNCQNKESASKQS
Method: as §1, §2, §3
as §4, with “Aurora-A (h)” for “CDK6/cyclinD3 human”, “200 μM LRRASLG (Kemptide),” for “0.1 mg/ml histone H1,”, “50” for “75”

Sequence of CDK6/cyclinD3 human (Q00534 whole entry): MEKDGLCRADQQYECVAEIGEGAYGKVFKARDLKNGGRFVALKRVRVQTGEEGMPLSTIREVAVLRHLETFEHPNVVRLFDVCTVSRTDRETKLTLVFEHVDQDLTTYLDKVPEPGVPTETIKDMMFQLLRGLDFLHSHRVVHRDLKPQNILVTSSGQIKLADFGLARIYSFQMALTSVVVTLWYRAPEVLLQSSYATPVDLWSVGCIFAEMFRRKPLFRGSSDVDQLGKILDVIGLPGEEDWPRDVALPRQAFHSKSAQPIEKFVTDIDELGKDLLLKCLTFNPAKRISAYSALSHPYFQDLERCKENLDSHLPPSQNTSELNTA
Sequence of CDK6/cyclinD3 human (P30281 whole entry partner): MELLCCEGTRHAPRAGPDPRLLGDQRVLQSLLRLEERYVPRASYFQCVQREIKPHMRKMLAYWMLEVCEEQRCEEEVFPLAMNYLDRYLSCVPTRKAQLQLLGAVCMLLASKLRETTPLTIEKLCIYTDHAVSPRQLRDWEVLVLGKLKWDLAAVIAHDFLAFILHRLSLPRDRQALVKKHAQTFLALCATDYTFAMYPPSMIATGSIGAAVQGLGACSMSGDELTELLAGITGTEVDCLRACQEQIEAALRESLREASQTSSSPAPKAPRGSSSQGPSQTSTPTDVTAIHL

SMILES | C3.7 score [1] | C3.1 score [2] | melting point [°C]
CN1CC(=O)NCC#Cc2cc(ccn2)-c2ncnc(n2)Nc2cccc(c2)C1 [Compound 1] | 4 (Score 4 = >80% inhibition) | 1 (Score 1 = 10-30% inhibition) | 267.5 to 269.3
CN1CC(=O)NC/C(Cl)=C/c2cc(ccn2)-c2ncnc(n2)Nc2cccc(c2)C1 [Compound 2] | 4 (Score 4 = >80% inhibition) | 2 (Score 2 = 30-60% inhibition) | 
O=C1CN2CCN(CC2)Cc2cccc(c2)Nc2ncnc(n2)-c2ccnc(c2)CCCN1 [Compound 9] | 1 (Score 1 = 10-30% inhibition) |  | 
CN1CCN(CCN2CCC(=O)NCCCc3cc(ccn3)-c3ncnc(n3)Nc3cccc(c3)C2)CC1 [Compound 11] | 1 (Score 1 = 10-30% inhibition) | 1 (Score 1 = 10-30% inhibition) | 
O=C1NCCCc2cc(ccn2)-c2ncnc(n2)Nc2cccc(c2)CN2CCCC12 (centres unmarked) [Compound 12] | 1 (Score 1 = 10-30% inhibition) | 1 (Score 1 = 10-30% inhibition) | 
O=C1NCCCc2cc(ccn2)-c2ncnc(n2)Nc2cccc(c2)CN2C[C@H](O)C[C@@H]12 [Compound 14] | 1 (Score 1 = 10-30% inhibition) | 2 (Score 2 = 30-60% inhibition) | 
O=C1NCCCc2cc(ccn2)-c2ncnc(n2)Nc2cccc(c2)CN2CCCC1C2 (centres unmarked) [Compound 15] | 1 (Score 1 = 10-30% inhibition) | 1 (Score 1 = 10-30% inhibition) | 
O=C1CCN2CCN(CC2)Cc2cccc(c2)Nc2ncnc(n2)-c2ccnc(c2)CCCN1 [Compound 35] | 3 (Score 3 = 60-80% inhibition) | 1 (Score 1 = 10-30% inhibition) | 
O=C1CN2CCN(CC2)Cc2cccc(c2)Nc2ncnc(n2)-c2ccnc(c2)CCCN1 [Compound 36] | 1 (Score 1 = 10-30% inhibition) | 1 (Score 1 = 10-30% inhibition) | 
O=C1NCCCc2cccc(c2)-c2ncnc(n2)Nc2cccc(c2)CN[C@H]1CO [Compound 46] | 1 (Score 1 = 10-30% inhibition) |  | 
CCN1CC(=O)NCCCc2cccc(c2)-c2ncnc(n2)Nc2cccc(c2)C1 [Compound 54] | 1 (Score 1 = 10-30% inhibition) |  | 
O=C1NCCCc2cc(ccc2F)-c2ncnc(n2)Nc2cc(Cl)cc(c2)CN[C@H]1CO [Compound 71] | 2 (Score 2 = 30-60% inhibition) | 2 (Score 2 = 30-60% inhibition) | 
O=C1NCCCc2cncc(c2)-c2ncnc(n2)Nc2cccc(c2)CN[C@H]1CO [Compound 81] | 1 (Score 1 = 10-30% inhibition) | 1 (Score 1 = 10-30% inhibition) | 

The remaining lines, values ahead:

C3.7 score [1] | C3.1 score [2] | melting point [°C] | SMILES
2 (Score 2 = 30-60% inhibition) | 1 (Score 1 = 10-30% inhibition) |  | CN1CCC(=O)NCCCc2cc(ccn2)-c2ncnc(n2)Nc2cccc(c2)C1 [Compound 3]
1 (Score 1 = 10-30% inhibition) | 1 (Score 1 = 10-30% inhibition) | 201.9 to 203.3 | CN1CCCc2cc(ccn2)-c2ncnc(n2)Nc2cccc(c2)CNC(=O)C1 [Compound 7]
2 (Score 2 = 30-60% inhibition) |  |  | CN1CC(=O)NCCCc2cc(ccn2)-c2ncnc(n2)Nc2cccc(c2)C1 [Compound 8]
4 (Score 4 = >80% inhibition) | 1 (Score 1 = 10-30% inhibition) |  | CN1CC(=O)NCCCc2cc(ccn2)-c2ncnc(n2)Nc2cccc(c2)C1 [Compound 10]
1 (Score 1 = 10-30% inhibition) | 2 (Score 2 = 30-60% inhibition) |  | CN1CCCC(=O)NCCCc2cc(ccn2)-c2ncnc(n2)Nc2cccc(c2)C1 [Compound 13]
1 (Score 1 = 10-30% inhibition) |  |  | CCN1CCCc2cc(ccn2)-c2ncnc(n2)Nc2cccc(c2)CCNC(=O)C1 [Compound 30]
3 (Score 3 = 60-80% inhibition) |  |  | CN1CC(=O)NCCCc2cc(ccn2)-c2ncnc(n2)Nc2cc(Cl)cc(c2)C1 [Compound 33]
2 (Score 2 = 30-60% inhibition) |  |  | CCN1CC(=O)NCCCc2cc(ccn2)-c2ncnc(n2)Nc2cc(Cl)cc(c2)C1 [Compound 34]
1 (Score 1 = 10-30% inhibition) |  |  | O=C1CN2CCN(CC2)Cc2cc(Cl)cc(c2)Nc2ncnc(n2)-c2ccnc(c2)CCCN1 [Compound 41]
